Results as given in patent US8461328B2, “Tricyclic heterocyclic compounds, compositions and methods of use thereof” (Genentech, Inc., priority 2010, dated 2013).
pKi: −log10 of the molar value.

Key:
Type in all cases: biochemical
[1] = biological target: T1, TYK2 (Homo sapiens, UniProt P29597); assay: TYK2 inhibition (Table 4)
T1 construct: made in house; host or cells: SF9 insect cells (baculovirus)
T1 sequence (P29597 873-1187): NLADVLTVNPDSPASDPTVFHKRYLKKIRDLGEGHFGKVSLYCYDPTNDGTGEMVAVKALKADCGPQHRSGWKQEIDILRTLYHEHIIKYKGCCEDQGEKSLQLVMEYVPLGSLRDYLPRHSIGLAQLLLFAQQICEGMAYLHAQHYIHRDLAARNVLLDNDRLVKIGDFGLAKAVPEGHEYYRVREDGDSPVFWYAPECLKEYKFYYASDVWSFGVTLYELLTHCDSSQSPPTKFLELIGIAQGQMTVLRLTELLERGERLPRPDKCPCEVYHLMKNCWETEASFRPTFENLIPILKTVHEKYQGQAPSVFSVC

[2] = biological target: T2, JAK2 (Homo sapiens, UniProt O60674); assay: JAK2 inhibition (Table 4); conditions: read-out: JAK2 Ki
T2 construct: made in house; host or cells: SF9 insect cells (baculovirus)

[3] = biological target: T3, JAK1 (Homo sapiens, UniProt P23458); assay: JAK1 inhibition (Table 4); conditions: read-out: JAK1 Ki
T3 construct: made in house; host or cells: SF9 insect cells (baculovirus)

[4] = biological target: T4, JAK3 (Homo sapiens, UniProt P52333); assay: JAK3 inhibition (Table 4); conditions: read-out: JAK3 Ki
T4 construct: made in house; host or cells: SF9 insect cells (baculovirus)
T4 sequence (P52333 783-1124): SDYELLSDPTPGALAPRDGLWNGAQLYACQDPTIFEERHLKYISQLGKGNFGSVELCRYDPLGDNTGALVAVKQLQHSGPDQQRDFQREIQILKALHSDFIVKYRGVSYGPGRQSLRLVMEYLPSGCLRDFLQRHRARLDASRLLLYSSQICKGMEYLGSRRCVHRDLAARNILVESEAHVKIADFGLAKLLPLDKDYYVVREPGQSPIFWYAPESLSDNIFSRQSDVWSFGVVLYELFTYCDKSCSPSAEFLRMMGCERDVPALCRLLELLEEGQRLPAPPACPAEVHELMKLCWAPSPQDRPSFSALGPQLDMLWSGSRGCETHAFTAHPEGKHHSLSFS

T2 sequence (O60674 812-1132): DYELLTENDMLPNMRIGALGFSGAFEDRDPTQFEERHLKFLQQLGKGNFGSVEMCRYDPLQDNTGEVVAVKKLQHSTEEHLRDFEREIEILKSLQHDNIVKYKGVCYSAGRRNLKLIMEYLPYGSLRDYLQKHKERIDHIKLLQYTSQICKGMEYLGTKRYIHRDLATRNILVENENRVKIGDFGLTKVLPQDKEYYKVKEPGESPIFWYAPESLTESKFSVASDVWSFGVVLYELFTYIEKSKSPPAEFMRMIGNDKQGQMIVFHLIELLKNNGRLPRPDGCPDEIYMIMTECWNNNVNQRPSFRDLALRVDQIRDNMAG
T3 sequence (P23458 852-1154): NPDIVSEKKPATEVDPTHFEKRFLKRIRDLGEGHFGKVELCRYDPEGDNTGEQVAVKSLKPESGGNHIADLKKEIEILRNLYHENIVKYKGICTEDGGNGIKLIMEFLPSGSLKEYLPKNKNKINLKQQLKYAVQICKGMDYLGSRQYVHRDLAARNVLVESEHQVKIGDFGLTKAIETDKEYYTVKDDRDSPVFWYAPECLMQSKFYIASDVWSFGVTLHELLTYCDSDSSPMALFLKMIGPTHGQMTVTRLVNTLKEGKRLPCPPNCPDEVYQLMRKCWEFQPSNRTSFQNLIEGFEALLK

| SMILES | pKi [1] | pKi [2] | pKi [3] | pKi [4] |
| --- | --- | --- | --- | --- |
| c1cc2c(ncc3ncn(C4CCCNCC4)c32)[nH]1 (racemic) [Example 489, 1-Azepan-4-yl-1,6-dihydro-1,3,5,6-tetraaza-as-indacene] | 6.22 | 6.50 | 7.47 | 6.49 |
| Cc1nc(CN2CCC(n3c([C@@H](C)O)nc4cnc5[nH]ccc5c43)CC2)c[nH]1 [Example 902, (R)-1-{1-[1-(2-Methyl-1H-imidazol-4-ylmethyl)-piperidin-4-yl]-1,6-dihydro-1,3,5,6-tetraaza-as-indacen-2-yl}-ethanol] | 5.57 | 5.91 | 7.59 | 6.32 |
| Cc1nc2cnc3[nH]ccc3c2n1[C@H]1CC[C@H](OC(=O)N(C)C)CC1 [Example 605, Trans dimethyl-carbamic acid 4-(2-methyl-6H-1,2,3,5,6-tetraaza-as-indacen-1-yl)-cyclohexyl ester] | 6.89 | 7.37 | 7.82 | 6.82 |
| CCN1CC[C@@H](n2c(CCNS(C)(=O)=O)nc3cnc4[nH]ccc4c32)[C@@H](F)C1 [Example 808, N-{2-[1-((3S,4R)-1-Ethyl-3-fluoro-piperidin-4-yl)-1,6-dihydro-1,3,5,6-tetraaza-as-indacen-2-yl]-ethyl}-methanesulfonamide] | 6.52 | 7.47 | 8.32 | 6.89 |
| OCc1nc2cnc3[nH]ccc3c2n1C1CCOCC1 [Example 542, [1-(Tetrahydro-pyran-4-yl)-1,6-dihydro-1,3,5,6-tetraaza-as-indacen-2-yl]-methanol] | 7.56 | 7.12 | 7.74 | 7.29 |
| c1cc2c(ncc3nc(C4CCC4)n(C4CCNCC4)c32)[nH]1 [Example 326, 2-Cyclobutyl-1-piperidin-4-yl-1,6-dihydro-1,3,5,6-tetraaza-as-indacene] | 5.58 | 6.03 | 7.56 | 6.26 |
| CC1CN(Cc2ccccc2)CCC1n1cnc2cnc3[nH]ccc3c21 (racemic) [Example 149, Racemic cis 1-(1-Benzyl-3-methyl-piperidin-4-yl)-1,6-dihydro-1,2,3,5,6-tetraaza-as-indacene] | 7.73 | 8.79 | 9.01 | 7.69 |
| Cc1nc(CN2CCC(n3c([C@@H](C)O)nc4cnc5[nH]ccc5c43)CC2)c(C)o1 [Example 903, (R)-1-{1-[1-(2,5-Dimethyl-oxazol-4-ylmethyl)-piperidin-4-yl]-1,6-dihydro-1,3,5,6-tetraaza-as-indacen-2-yl}-ethanol] | 6.27 | 6.49 | 7.47 | 7.05 |
| c1cncc(CN[C@H]2CC[C@H](n3cnc4cnc5[nH]ccc5c43)CC2)c1 [Example 336, Pyridin-3-ylmethyl-[4-(6H-1,3,5,6-tetraaza-as-indacen-1-yl)-cyclohexyl]-amine] | 7.11 | 7.20 | 7.80 | 6.18 |
| CS(=O)(=O)[C@H]1CC[C@H](n2c(CO)nc3cnc4[nH]ccc4c32)CC1 [Example 651, Trans[1-(4-Methanesulfonyl-cyclohexyl)-1,6-dihydro-1,2,3,5,6-tetraaza-as-indacen-2-yl]-methanol] | 7.46 | 7.37 | 8.01 | 6.37 |
| Cc1nc2cnc3[nH]ccc3c2n1[C@@H]1CCCN(Cc2ccccc2)C1 [Example 238, (R)-1-(1-Benzyl-piperidin-3-yl)-2-methyl-1,6-dihydro-1,3,5,6-tetraaza-as-indacene] | 6.77 | 7.58 | 7.53 | 7.07 |
| CC(=O)NCCc1nc2cnc3[nH]ccc3c2n1[C@@H]1CCCOC1 [Example 865, (R)—N-{2-[1-(Tetrahydro-pyran-3-yl)-1,6-dihydro-1,3,5,6-tetraaza-as-indacen-2-yl]-ethyl}-acetamide] | 5.90 | 6.25 | 7.06 | 6.14 |
| CC1CC(n2cnc3cnc4[nH]ccc4c32)CCN1 (racemic) [Example 230, 1-(2-Methyl-piperidin-4-yl)-1,6-dihydro-1,3,5,6-tetraaza-as-indacene] | 6.36 | 6.91 | 7.32 | 6.37 |
| Cc1nc2cnc3[nH]ccc3c2n1C1CCC(N2CCC(F)(F)CC2)CC1 (stereo not shown) [Example 767, 1-[4-(4,4-Difluoro-piperidin-1-yl)-cyclohexyl]-2-methyl-1,6-dihydro-1,3,5,6-tetraaza-as-indacene] | 7.43 | 7.97 | 8.55 | 6.81 |
| C[C@@H](O)c1nc2cnc3[nH]ccc3c2n1C1CCCC1 [Example 867, (R)-1-(1-Cyclopentyl-1,6-dihydro-1,3,5,6-tetraaza-as-indacen-2-yl)-ethanol] | 7.58 | 7.02 | 8.45 | 6.92 |
| COCCC(=O)N[C@H]1CC[C@H](n2cnc3cnc4[nH]ccc4c32)CC1 [Example 573, trans 3-Methoxy-N-[4-(6H-1,3,5,6-tetraaza-as-indacen-1-yl)-cyclohexyl]-propionamide] | 7.04 | 7.97 | 8.34 | 7.16 |
| O=C(C1CC1)N1CCC[C@@H](n2cnc3cnc4[nH]ccc4c32)C1 [Example 75, Cyclopropyl-[(R)-3-(6H-1,3,5,6-tetraaza-as-indacen-1-yl)-piperidin-1-yl]methanone] | 7.72 | 8.07 | 8.23 | 7.22 |
| CC(C)C(=O)NCc1nc2cnc3[nH]ccc3c2n1C1CCN(CCC#N)CC1 [Example 498, N-{1-[1-(2-Cyano-ethyl)-piperidin-4-yl]-1,6-dihydro-1,3,5,6-tetraaza-as-indacen-2-ylmethyl}-isobutyramide] | 6.51 | 7.17 | 7.66 | 7.22 |
| O=C(NCCc1nc2cnc3[nH]ccc3c2n1[C@H]1CCCOC1)C1CC1 [Example 857, (S)-Cyclopropanecarboxylic acid {2-[1-(tetrahydro-pyran-3-yl)-1,6-dihydro-1,3,5,6-tetraaza-as-indacen-2-yl]-ethyl}-amide] | 6.44 | 6.67 | 8.21 | 6.28 |
| CC1CN(S(C)(=O)=O)CCC1n1cnc2cnc3[nH]ccc3c21 (racemic) [Example 344, 1-(1-Methanesulfonyl-3-methyl-piperidin-4-yl)-1,6-dihydro-1,3,5,6-tetraaza-as-indacene] | 6.48 | 7.52 | 7.80 | 7.09 |
| CC(C)(C)[S+]([O-])NCc1nc2cnc3[nH]ccc3c2n1C1CCCCC1 (stereo not shown) [Example 690, 2-Methyl-propane-2-sulfinic acid (1-cyclohyl-1,6-dihydro-1,2,3,5,6-tetraaza-as-indacen-2-ylmethyl)-amide] | 6.57 | 6.70 | 7.21 | 6.64 |
| Cc1nc2cnc3[nH]ccc3c2n1C1CC2CCC1C2 (stereo not shown) [Example 121a, 1-Bicyclo[2.2.1]hept-2-yl-2-methyl-1,6-dihydro-1,2,3,5,6-tetraaza-as-indacene] | 8.63 | 8.74 | 9.49 | 8.13 |
| CC(CC#N)N1CCC(n2c(CS(C)(=O)=O)nc3cnc4[nH]ccc4c32)CC1 (racemic) [Example 396, 3-[4-(2-Methanesulfonylmethyl-6H-1,3,5,6-tetraaza-as-indacen-1-yl)-piperidin-1-yl]-butyronitrile] | 7.02 | 7.44 | 7.81 | 7.74 |
| O=C(Cc1nc2cnc3[nH]ccc3c2n1C1CCCOC1)N1CCC(F)(F)CC1 (racemic) [Example 978, 1-(4,4-Difluoro-piperidin-1-yl)-2-[1-(tetrahydro-pyran-3-yl)-1,6-dihydro-1,3,5,6-tetraaza-as-indacen-2-yl]-ethanone] | 6.80 | 6.52 | 7.76 | 6.91 |
| FC(F)c1nc2cnc3[nH]ccc3c2n1C1CCNCC1 [Example 307, 2-Difluoromethyl-1-piperidin-4-yl-1,6-dihydro-1,3,5,6-tetraaza-as-indacene] | 6.43 | 6.64 | 7.74 | 6.70 |
| Cc1nc2cnc3[nH]ccc3c2n1C1(C)CCN(CCC#N)CC1 [Example 581, 3-[4-Methyl-4-(2-methyl-6H-1,2,3,5,6-tetraaza-as-indacen-1-yl)-piperidin-1-yl]-propionitrile] | 6.56 | 6.94 | 7.57 | 6.55 |
| CC(=O)N(C)CCc1nc2cnc3[nH]ccc3c2n1C1CCCCC1 [Example 802, N-[2-(1-Cyclohexyl-1,6-dihydro-1,3,5,6-tetraaza-as-indacen-2-yl)-ethyl]-N-methyl-acetamide] | 7.26 | 7.31 | 8.11 | 7.10 |
| CN1CCOCC1C(=O)N1CCC(n2cnc3cnc4[nH]ccc4c32)CC1 (single isomer, unassigned) [Example 197, (4-Methyl-morpholin-3-yl)-[4-(6H-1,2,3,5,6-tetraaza-as-indacen-1-yl)-piperidin-1-yl]-methanone] | 6.18 | 6.69 | 7.49 | 5.49 |
